Experimental data reported in ChEMBL document CHEMBL3997785, “Optimization of 2-Anilino 4-Amino Substituted Quinazolines into Potent Antimalarial Agents with Oral in Vivo Activity” (J Med Chem, 2017).
pEC50: −log10 of the molar value. In brackets after ≈: the same amount, converted by molar mass.

System: Plasmodium falciparum
Experiment: Antimalarial activity against synchronous culture of Plasmodium falciparum 3D7 ring stage parasite infected in human erythrocytes incubated for 6 hrs followed by compound wash out and measured after 24 hrs by NanoGlo-reagent based bioluminescence assay
Type: functional, cell-based
Settings: not given

SMILES | pEC50
C[C@@H]1CC[C@H]2[C@@H](C)C(=O)O[C@@H]3O[C@@]4(C)CC[C@@H]1[C@]32OO4 [ARTEMISININ] | 8.30

System: Plasmodium falciparum
Experiment: Antimalarial activity against Plasmodium falciparum NF54 harboring pfs16-LUC-GFP early stage 1 to 3 gametocytes after 48 hrs by MitoTracker Red staining based confocal microscopy
Type: functional
Settings: NF54, 48 h

SMILES | pEC50
C[C@H]1[C@H](OC(=O)CCC(=O)O)O[C@@H]2O[C@@]3(C)CC[C@H]4[C@H](C)CC[C@@H]1[C@@]24OO3 [ARTESUNATE] | 8.52
COc1ccc2nc3cc(Cl)ccc3c(Nc3cc(CN4CCCC4)c(O)c(CN4CCCC4)c3)c2n1 [PYRONARIDINE] | 7.60

System: not listed separately
Experiment: Intrinsic clearance in mouse liver microsomes at 1 uM in presence of NADPH by LC-MS method
Type: ADME, microsome
Settings: read-out: CLH

SMILES | microsomal CLint at 1 µM
COc1ccc(Nc2nc(NCc3ccccc3)c3ccccc3n2)cc1 | 123 µL/min/mg

System: not listed separately
Experiment: Aqueous solubility of the compound at pH 6.5 by nephelometry
Type: physicochemical
Settings: not given

SMILES | solubility kinetic
COc1ccc(Nc2nc(NCc3ccccc3)c3ccccc3n2)cc1 | 1.6 to 3.1 µM (≈ 0.57 to 1.1 µg/mL)

System: Plasmodium falciparum
Experiment: Antimalarial activity against Plasmodium falciparum 3D7 asexual blood stage infected in human erythrocytes incubated for 72 hrs by LDH assay
Type: functional, cell-based
Settings: 3D7, 72 h

SMILES | pEC50
NC(=O)c1ccc(Nc2nc(NCc3ccco3)c3ccccc3n2)cc1 | 6.24
Fc1ccc(Nc2nc(NCCN3CCCC3)c3ccccc3n2)cc1 | 7.11
CC(=O)Nc1ccc(Nc2nc(NCC3CCCO3)c3ccccc3n2)cc1 (stereo not given) | 6.56
Clc1cc(Nc2nc(NCc3ccccc3)c3ccccc3n2)ccc1Br | 6.86
COc1ccc(Nc2nc(NCc3ccco3)c3ccccc3n2)cc1 | 6.91
COc1ccc(Nc2nc(N3CCOCC3)c3ccccc3n2)cc1 | 5.11
CN1CCN(CCNc2nc(Nc3ccc(F)cc3)nc3ccccc23)CC1 | 7.38
CN(C)CCNc1nc(Nc2ccc(F)cc2)nc2ccccc12 | 6.98
CNc1nc(Nc2ccc(F)cc2)nc2ccccc12 | 6.87
Brc1ccc(Nc2nc(NCc3ccco3)c3ccccc3n2)cc1 | 6.90
COc1ccc(Nc2nc(NCc3ccccc3)c3ccccc3n2)cc1 | 6.58
FC(F)(F)c1ccc(Nc2nc(NCc3ccccc3)c3ccccc3n2)cc1 | 6.98
CNc1nc(Nc2ccc(OC)cc2)nc2ccccc12 | 6.81
CN1CCC(Nc2nc(Nc3ccc(F)c(Cl)c3)nc3cccnc23)CC1 | 6.87
Clc1cccc(Nc2nc(NCc3ccco3)c3ccccc3n2)c1 | 6.87
Fc1cccc(Nc2nc(NCC3CCCO3)c3ccccc3n2)c1 (stereo not given) | 6.84
NC(=O)c1ccc(Nc2nc(NCC3CCCO3)c3ccccc3n2)cc1 (stereo not given) | 6.16
CN1CCC(Nc2nc(Nc3ccc(Cl)c(F)c3)nc3cccnc23)CC1 | 6.55
CN1CCN(CCNc2nc(Nc3ccc(Cl)c(F)c3)nc3cccnc23)CC1 | 6.89
Fc1ccc(Nc2nc(NCc3ccccc3)c3ncccc3n2)cc1 | 7.24
Cn1cnc2nc(Nc3ccc(F)cc3)nc(NCc3ccccc3)c21 | 5.92
CCOc1ccc(Nc2nc(NCc3ccccc3)c3ccccc3n2)cc1 | 6.80
C[C@H]1[C@H](OC(=O)CCC(=O)O)O[C@@H]2O[C@@]3(C)CC[C@H]4[C@H](C)CC[C@@H]1[C@@]24OO3 [ARTESUNATE] | 8.10

System: not listed separately
Experiment: Intrinsic clearance in human liver microsomes at 1 uM in presence of NADPH by LC-MS method
Type: ADME, microsome
Settings: read-out: CLH

SMILES | microsomal CLint at 1 µM
COc1ccc(Nc2nc(NCc3ccccc3)c3ccccc3n2)cc1 | 27 µL/min/mg

System: not listed separately
Experiment: Half life in mouse liver microsomes at 1 uM in presence of NADPH by LC-MS method
Type: ADME, microsome
Settings: not given

SMILES | half-life at 1 µM
COc1ccc(Nc2nc(NCc3ccccc3)c3ccccc3n2)cc1 | 14 min

System: not listed separately
Experiment: Half life in human liver microsomes at 1 uM in presence of NADPH by LC-MS method
Type: ADME, microsome
Settings: not given

SMILES | half-life at 1 µM
COc1ccc(Nc2nc(NCc3ccccc3)c3ccccc3n2)cc1 | 65 min

System: not listed separately
Experiment: Aqueous solubility of the compound at pH 2 by nephelometry
Type: physicochemical
Settings: not given

SMILES | solubility kinetic
COc1ccc(Nc2nc(NCc3ccccc3)c3ccccc3n2)cc1 | 25 to 50 µM (≈ 8.91 to 17.8 µg/mL)

System: not listed separately
Experiment: Selectivity index, ratio of EC50 for human HepG2 cells to EC50 for Plasmodium falciparum 3D7 asexual blood stage infected in human erythrocytes
Type: toxicity, cell-based
Settings: read-out: Ratio EC50

SMILES | selectivity ratio
NC(=O)c1ccc(Nc2nc(NCc3ccco3)c3ccccc3n2)cc1 | 35
Fc1ccc(Nc2nc(NCCN3CCCC3)c3ccccc3n2)cc1 | 343
CC(=O)Nc1ccc(Nc2nc(NCC3CCCO3)c3ccccc3n2)cc1 (stereo not given) | 140
Clc1cc(Nc2nc(NCc3ccccc3)c3ccccc3n2)ccc1Br | 40
COc1ccc(Nc2nc(NCc3ccco3)c3ccccc3n2)cc1 | 20
COc1ccc(Nc2nc(N3CCOCC3)c3ccccc3n2)cc1 | 3
CN1CCN(CCNc2nc(Nc3ccc(F)cc3)nc3ccccc23)CC1 | 362
CN(C)CCNc1nc(Nc2ccc(F)cc2)nc2ccccc12 | 267
CNc1nc(Nc2ccc(F)cc2)nc2ccccc12 | 119
Brc1ccc(Nc2nc(NCc3ccco3)c3ccccc3n2)cc1 | 153
COc1ccc(Nc2nc(NCc3ccccc3)c3ccccc3n2)cc1 | 32
CNc1nc(Nc2ccc(OC)cc2)nc2ccccc12 | 168
CN1CCC(Nc2nc(Nc3ccc(F)c(Cl)c3)nc3cccnc23)CC1 | 86
Clc1cccc(Nc2nc(NCc3ccco3)c3ccccc3n2)c1 | 37
Fc1cccc(Nc2nc(NCC3CCCO3)c3ccccc3n2)c1 (stereo not given) | 39
NC(=O)c1ccc(Nc2nc(NCC3CCCO3)c3ccccc3n2)cc1 (stereo not given) | 50
CN1CCC(Nc2nc(Nc3ccc(Cl)c(F)c3)nc3cccnc23)CC1 | 39
CN1CCN(CCNc2nc(Nc3ccc(Cl)c(F)c3)nc3cccnc23)CC1 | 96
Fc1ccc(Nc2nc(NCc3ccccc3)c3ncccc3n2)cc1 | 320
Cn1cnc2nc(Nc3ccc(F)cc3)nc(NCc3ccccc3)c21 | 7
CCOc1ccc(Nc2nc(NCc3ccccc3)c3ccccc3n2)cc1 | 29

System: Plasmodium falciparum
Experiment: Antimalarial activity against chloroquine and mefloquine resistant Plasmodium falciparum W2mef infected in human erythrocytes incubated for 72 hrs by LDH assay
Type: functional, cell-based
Settings: not given

SMILES | pEC50
Clc1cc(Nc2nc(NCc3ccccc3)c3ccccc3n2)ccc1Br | 6.89
CN1CCN(CCNc2nc(Nc3ccc(F)cc3)nc3ccccc23)CC1 | 6.91
C[C@H]1[C@H](OC(=O)CCC(=O)O)O[C@@H]2O[C@@]3(C)CC[C@H]4[C@H](C)CC[C@@H]1[C@@]24OO3 [ARTESUNATE] | 8.22

System: Plasmodium falciparum
Experiment: Antimalarial activity against Plasmodium falciparum NF54 harboring pfs16-LUC-GFP ring stage gametocytes after 24 hrs by MitoTracker Red staining based confocal microscopy
Type: functional
Settings: NF54, 24 h

SMILES | pEC50
C[C@H]1[C@H](OC(=O)CCC(=O)O)O[C@@H]2O[C@@]3(C)CC[C@H]4[C@H](C)CC[C@@H]1[C@@]24OO3 [ARTESUNATE] | 8.52
COc1ccc2nc3cc(Cl)ccc3c(Nc3cc(CN4CCCC4)c(O)c(CN4CCCC4)c3)c2n1 [PYRONARIDINE] | 7.80

System: HepG2
Experiment: Cytotoxicity against human HepG2 cells assessed as growth inhibition after 48 hrs by Cell Titer-Glo assay
Type: cell-based
Settings: HepG2, 48 h

SMILES | pEC50
NC(=O)c1ccc(Nc2nc(NCc3ccco3)c3ccccc3n2)cc1 | 4.70
Fc1ccc(Nc2nc(NCCN3CCCC3)c3ccccc3n2)cc1 | 4.58
CC(=O)Nc1ccc(Nc2nc(NCC3CCCO3)c3ccccc3n2)cc1 (stereo not given) | 4.42
Clc1cc(Nc2nc(NCc3ccccc3)c3ccccc3n2)ccc1Br | 5.54
COc1ccc(Nc2nc(NCc3ccco3)c3ccccc3n2)cc1 | 5.60
COc1ccc(Nc2nc(N3CCOCC3)c3ccccc3n2)cc1 | 4.59
CN1CCN(CCNc2nc(Nc3ccc(F)cc3)nc3ccccc23)CC1 | 4.82
CN(C)CCNc1nc(Nc2ccc(F)cc2)nc2ccccc12 | 4.55
CNc1nc(Nc2ccc(F)cc2)nc2ccccc12 | 4.79
Brc1ccc(Nc2nc(NCc3ccco3)c3ccccc3n2)cc1 | 4.72
COc1ccc(Nc2nc(NCc3ccccc3)c3ccccc3n2)cc1 | 5.07
FC(F)(F)c1ccc(Nc2nc(NCc3ccccc3)c3ccccc3n2)cc1 | 5.19
CNc1nc(Nc2ccc(OC)cc2)nc2ccccc12 | 4.58
CN1CCC(Nc2nc(Nc3ccc(F)c(Cl)c3)nc3cccnc23)CC1 | 4.94
Clc1cccc(Nc2nc(NCc3ccco3)c3ccccc3n2)c1 | 5.30
Fc1cccc(Nc2nc(NCC3CCCO3)c3ccccc3n2)c1 (stereo not given) | 5.07
NC(=O)c1ccc(Nc2nc(NCC3CCCO3)c3ccccc3n2)cc1 (stereo not given) | 4.46
CN1CCC(Nc2nc(Nc3ccc(Cl)c(F)c3)nc3cccnc23)CC1 | 4.95
CN1CCN(CCNc2nc(Nc3ccc(Cl)c(F)c3)nc3cccnc23)CC1 | 4.91
Fc1ccc(Nc2nc(NCc3ccccc3)c3ncccc3n2)cc1 | 4.74
Cn1cnc2nc(Nc3ccc(F)cc3)nc(NCc3ccccc3)c21 | 5.05
CCOc1ccc(Nc2nc(NCc3ccccc3)c3ccccc3n2)cc1 | 5.35

System: not listed separately
Experiment: Hepatic extraction ratio in mouse liver microsomes at 1 uM in presence of NADPH by LC-MS method
Type: ADME, microsome
Settings: read-out: ERH

SMILES | hepatic extraction ratio at 1 µM
COc1ccc(Nc2nc(NCc3ccccc3)c3ccccc3n2)cc1 | 0.73

System: Plasmodium falciparum
Experiment: Antimalarial activity against synchronous culture of Plasmodium falciparum 3D7 ring stage parasite infected in human erythrocytes incubated for 24 hrs followed by compound wash out and measured after 24 hrs by NanoGlo-reagent based bioluminescence assay
Type: functional, cell-based
Settings: 3D7, 24 h

SMILES | pEC50
C[C@@H]1CC[C@H]2[C@@H](C)C(=O)O[C@@H]3O[C@@]4(C)CC[C@@H]1[C@]32OO4 [ARTEMISININ] | 8.70

System: Plasmodium falciparum
Experiment: Antimalarial activity against Plasmodium falciparum NF54 harboring pfs16-LUC-GFP late stage 4 to 5 gametocytes after 48 hrs by MitoTracker Red staining based confocal microscopy
Type: functional
Settings: NF54, 48 h

SMILES | pEC50
C[C@H]1[C@H](OC(=O)CCC(=O)O)O[C@@H]2O[C@@]3(C)CC[C@H]4[C@H](C)CC[C@@H]1[C@@]24OO3 [ARTESUNATE] | 8.10
COc1ccc2nc3cc(Cl)ccc3c(Nc3cc(CN4CCCC4)c(O)c(CN4CCCC4)c3)c2n1 [PYRONARIDINE] | 5.85

System: not listed separately
Experiment: Hepatic extraction ratio in human liver microsomes at 1 uM in presence of NADPH by LC-MS method
Type: ADME, microsome
Settings: read-out: ERH

SMILES | hepatic extraction ratio at 1 µM
COc1ccc(Nc2nc(NCc3ccccc3)c3ccccc3n2)cc1 | 0.51
